{"source": "patent US8524745B2", "about": "(Allergan, Inc., priority 2011, dated 2013)"}
{"target": "T1, CCR2 (Homo sapiens, UniProt P41597)", "T1 construct": "expressed in transfected cells", "T1 sequence (P41597 whole entry, species assumed)": "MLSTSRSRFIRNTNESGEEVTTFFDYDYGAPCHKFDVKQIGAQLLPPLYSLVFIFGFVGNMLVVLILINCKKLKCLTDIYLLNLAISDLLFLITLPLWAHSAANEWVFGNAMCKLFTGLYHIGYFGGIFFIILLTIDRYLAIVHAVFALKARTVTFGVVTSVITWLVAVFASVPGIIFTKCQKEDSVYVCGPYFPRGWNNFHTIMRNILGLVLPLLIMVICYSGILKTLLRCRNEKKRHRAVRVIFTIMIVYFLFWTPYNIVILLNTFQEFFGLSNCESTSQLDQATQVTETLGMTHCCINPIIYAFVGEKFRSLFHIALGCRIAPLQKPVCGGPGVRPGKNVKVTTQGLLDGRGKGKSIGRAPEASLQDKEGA", "experiment": "CCR2 calcium activity assay on FLIPR Tetra in HEK-Gqi5 cells stably expressing CCR2", "assay_type": "cell-based", "units": {"CCR2 % ANTAG": "%", "IC50": "µM"}}
{"compound": "Cn1cc(S(=O)(=O)Nc2ccccc2NS(=O)(=O)c2ccc3c(c2)c(=O)sn3C)cn1", "note": "[1-methyl-N-(2-{[(1-methyl-1H-pyrazol-4-yl)sulfonyl]amino}phenyl)-3-oxo-1,3-dihydro-2,1-benzisothiazole-5-sulfonamide]", "CCR2 % ANTAG": 60, "IC50": 2.48}
{"compound": "Cn1sc(=O)c2cc(S(=O)(=O)Nc3ccccc3NS(=O)(=O)c3cc(Cl)c(Cl)s3)ccc21", "note": "[N-(2-{[(4,5-dichloro-2-thienyl)sulfonyl]amino}phenyl)-1-methyl-3-oxo-1,3-dihydro-2,1-benzisothiazole-5-sulfonamide]", "CCR2 % ANTAG": 89, "IC50": 0.359}
{"compound": "N,N-dimethyl-N-(4-{[(1-methyl-3-oxo-1,3-dihydro-2,1-benzisothiazol-5-yl)carbonyl]amino}benzyl)tetrahydro-2H-pyran-4-aminium", "CCR2 % ANTAG": 85, "IC50": 1.19}
{"compound": "Cn1sc(=O)c2cc(S(=O)(=O)N[C@@H]3CCCC[C@H]3NS(=O)(=O)c3ccc(Cl)c(C(F)(F)F)c3)ccc21", "note": "(relative stereo) [rel-N-[(1R,2R)-2-({[4-chloro-3-(trifluoromethyl)phenyl]sulfonyl}amino)cyclohexyl]-1-methyl-3-oxo-1,3-dihydro-2,1-benzisothiazole-5-sulfonamide]", "CCR2 % ANTAG": 96, "IC50": 0.543}
{"compound": "Cn1sc(=O)c2cc(S(=O)(=O)Nc3cc(Cl)ccc3NS(=O)(=O)c3ccc(Cl)c(C(F)(F)F)c3)ccc21", "note": "[N-[5-chloro-2-({[4-chloro-3-(trifluoromethyl)phenyl]sulfonyl}amino)phenyl]-1-methyl-3-oxo-1,3-dihydro-2,1-benzisothiazole-5-sulfonamide]", "CCR2 % ANTAG": 88, "IC50": 0.24}
{"compound": "Cn1sc(=O)c2cc(S(=O)(=O)N[C@@H]3CCCC[C@H]3NC(=O)c3cccs3)ccc21", "note": "(relative stereo) [rel-N-[(1R,2R)-2-{[(1-methyl-3-oxo-1,3-dihydro-2,1-benzisothiazol-5-yl)sulfonyl]amino}cyclohexyl]thiophene-2-carboxamide]", "CCR2 % ANTAG": 46}
{"compound": "Cn1sc(=O)c2cc(S(=O)(=O)Nc3cc(Cl)ccc3NCc3cccs3)ccc21", "note": "[N-{5-chloro-2-[(2-thienylmethyl)amino]phenyl}-1-methyl-3-oxo-1,3-dihydro-2,1-benzisothiazole-5-sulfonamide]", "CCR2 % ANTAG": 83, "IC50": 1.08}
{"compound": "Cn1sc(=O)c2cc(S(=O)(=O)Nc3cccc4c3OCO4)ccc21", "note": "[N-1,3-benzodioxol-4-yl-1-methyl-3-oxo-1,3-dihydro-2,1-benzisothiazole-5-sulfonamide]", "CCR2 % ANTAG": 73, "IC50": 1.94}
{"compound": "CC(C)n1sc(=O)c2cc(S(=O)(=O)Nc3ccccc3NS(=O)(=O)c3cccs3)ccc21", "note": "[1-isopropyl-3-oxo-N-{2-[(2-thienylsulfonyl)amino]phenyl}-1,3-dihydro-2,1-benzisothiazole-5-sulfonamide]", "CCR2 % ANTAG": 90, "IC50": 4.32}
{"compound": "Cn1sc(=O)c2cc(S(=O)(=O)N3CCCC(NS(=O)(=O)c4cccs4)C3)ccc21", "note": "(centres unmarked) [N-{1-[(1-methyl-3-oxo-1,3-dihydro-2,1-benzisothiazol-5-yl)sulfonyl]piperidin-3-yl}thiophene-2-sulfonamide]", "CCR2 % ANTAG": 54}
{"compound": "Cn1sc(=O)c2cc(S(=O)(=O)N[C@@H]3CCCC[C@H]3NS(=O)(=O)c3cccs3)ccc21", "note": "(relative stereo) [rel-1-methyl-3-oxo-N-{(1R,2R)-2-[(2-thienylsulfonyl)amino]cyclohexyl}-1,3-dihydro-2,1-benzisothiazole-5-sulfonamide]", "CCR2 % ANTAG": 79, "IC50": 2.37}
{"compound": "Cn1sc(=O)c2cc(S(=O)(=O)Nc3ccc(Cl)cc3NS(=O)(=O)c3cccs3)ccc21", "note": "[N-{4-chloro-2-[(2-thienylsulfonyl)amino]phenyl}-1-methyl-3-oxo-1,3-dihydro-2,1-benzisothiazole-5-sulfonamide]", "CCR2 % ANTAG": 102, "IC50": 0.393}
{"compound": "Cc1ccc(NS(=O)(=O)c2ccc3c(c2)c(=O)sn3C)c(NS(=O)(=O)c2cccs2)c1", "note": "[1-methyl-N-{4-methyl-2-[(2-thienylsulfonyl)amino]phenyl}-3-oxo-1,3-dihydro-2,1-benzisothiazole-5-sulfonamide]", "CCR2 % ANTAG": 99, "IC50": 0.563}
{"compound": "Cn1sc(=O)c2cc(S(=O)(=O)Nc3cccc4c3Oc3ccccc3O4)ccc21", "note": "[N-dibenzo[b,e][1,4]dioxin-1-yl-1-methyl-3-oxo-1,3-dihydro-2,1-benzisothiazole-5-sulfonamide]", "CCR2 % ANTAG": 67, "IC50": 1.46}
{"compound": "Cn1sc(=O)c2cc(S(=O)(=O)Nc3ccccc3NS(=O)(=O)c3cccc(F)c3)ccc21", "note": "[N-(2-{[(3-fluorophenyl)sulfonyl]amino}phenyl)-1-methyl-3-oxo-1,3-dihydro-2,1-benzisothiazole-5-sulfonamide]", "CCR2 % ANTAG": 100, "IC50": 2.42}
{"compound": "Cc1ccc(S(=O)(=O)Nc2ccc(Cl)cc2NS(=O)(=O)c2ccc3c(c2)c(=O)sn3C)s1", "note": "[N-(5-chloro-2-{[(5-methyl-2-thienyl)sulfonyl]amino}phenyl)-1-methyl-3-oxo-1,3-dihydro-2,1-benzisothiazole-5-sulfonamide]", "CCR2 % ANTAG": 95, "IC50": 0.497}
{"compound": "Cn1sc(=O)c2cc(S(=O)(=O)N3CCN(S(=O)(=O)c4cccs4)c4ccccc43)ccc21", "note": "[1-methyl-5-{[4-(2-thienylsulfonyl)-3,4-dihydroquinoxalin-1(2H)-yl]sulfonyl}-2,1-benzisothiazol-3(1H)-one]", "CCR2 % ANTAG": 65, "IC50": 2.08}
{"compound": "Cn1sc(=O)c2cc(S(=O)(=O)Nc3ccccc3NS(=O)(=O)c3ccc(Cl)s3)ccc21", "note": "[N-(2-{[(5-chloro-2-thienyl)sulfonyl]amino}phenyl)-1-methyl-3-oxo-1,3-dihydro-2,1-benzisothiazole-5-sulfonamide]", "CCR2 % ANTAG": 104, "IC50": 0.513}
{"compound": "Cn1sc(=O)c2cc(S(=O)(=O)Nc3ccccc3NS(=O)(=O)c3ccc(C(F)(F)F)cc3)ccc21", "note": "[1-methyl-3-oxo-N-[2-({[4-(trifluoromethyl)phenyl]sulfonyl}amino)phenyl]-1,3-dihydro-2,1-benzisothiazole-5-sulfonamide]", "CCR2 % ANTAG": 24, "IC50": 0.606}
{"compound": "COc1ccccc1S(=O)(=O)Nc1ccc(Cl)cc1NS(=O)(=O)c1ccc2c(c1)c(=O)sn2C", "note": "[N-(5-chloro-2-{[(2-methoxyphenyl)sulfonyl]amino}phenyl)-1-methyl-3-oxo-1,3-dihydro-2,1-benzisothiazole-5-sulfonamide]", "CCR2 % ANTAG": 91, "IC50": 0.397}
{"compound": "Cn1sc(=O)c2cc(S(=O)(=O)Nc3cc(Cl)ccc3NS(=O)(=O)c3cc(Cl)cc(Cl)c3)ccc21", "note": "[N-(5-chloro-2-{[(3,5-dichlorophenyl)sulfonyl]amino}phenyl)-1-methyl-3-oxo-1,3-dihydro-2,1-benzisothiazole-5-sulfonamide]", "CCR2 % ANTAG": 94, "IC50": 2.6}
{"compound": "COc1cccc(S(=O)(=O)Nc2ccc(Cl)cc2NS(=O)(=O)c2ccc3c(c2)c(=O)sn3C)c1", "note": "[N-(5-chloro-2-{[(3-methoxyphenyl)sulfonyl]amino}phenyl)-1-methyl-3-oxo-1,3-dihydro-2,1-benzisothiazole-5-sulfonamide]", "CCR2 % ANTAG": 83, "IC50": 0.402}
{"compound": "Cn1sc(=O)c2cc(S(=O)(=O)Nc3ccccc3NC(=O)Nc3cccs3)ccc21", "note": "[1-methyl-3-oxo-N-(2-{[(2-thienylamino)carbonyl]amino}phenyl)-1,3-dihydro-2,1-benzisothiazole-5-sulfonamide]", "CCR2 % ANTAG": 58, "IC50": 2.53}
{"compound": "Cc1cc(NS(=O)(=O)c2ccc3c(c2)c(=O)sn3C)c(NS(=O)(=O)c2cccs2)cc1Cl", "note": "[N-{4-chloro-5-methyl-2-[(2-thienylsulfonyl)amino]phenyl}-1-methyl-3-oxo-1,3-dihydro-2,1-benzisothiazole-5-sulfonamide]", "CCR2 % ANTAG": 75, "IC50": 0.311}
{"compound": "Cn1sc(=O)c2cc(S(=O)(=O)NC3CCN(S(=O)(=O)c4cccs4)C3)ccc21", "note": "(centres unmarked) [1-methyl-3-oxo-N-[1-(2-thienylsulfonyl)pyrrolidin-3-yl]-1,3-dihydro-2,1-benzisothiazole-5-sulfonamide]", "CCR2 % ANTAG": 22}
{"compound": "Cn1sc(=O)c2cc(S(=O)(=O)Nc3ccccc3NS(=O)(=O)c3c[nH]cn3)ccc21", "note": "[N-{2-[(1H-imidazol-4-ylsulfonyl)amino]phenyl}-1-methyl-3-oxo-1,3-dihydro-2,1-benzisothiazole-5-sulfonamide]", "CCR2 % ANTAG": 0, "IC50": "> 8.3"}
{"compound": "Cn1sc(=O)c2cc(S(=O)(=O)Nc3cc(C#N)ccc3NS(=O)(=O)c3cccs3)ccc21", "note": "[N-{5-cyano-2-[(2-thienylsulfonyl)amino]phenyl}-1-methyl-3-oxo-1,3-dihydro-2,1-benzisothiazole-5-sulfonamide]", "CCR2 % ANTAG": 59, "IC50": 2.72}
{"compound": "Cn1sc(=O)c2cc(S(=O)(=O)Nc3cc(Cl)ccc3NS(=O)(=O)c3cccs3)ccc21", "note": "[N-{5-chloro-2-[(2-thienylsulfonyl)amino]phenyl}-1-methyl-3-oxo-1,3-dihydro-2,1-benzisothiazole-5-sulfonamide]", "CCR2 % ANTAG": 98, "IC50": 0.234}
{"compound": "COc1ccc(S(=O)(=O)Nc2cc(Cl)c(Cl)cc2NS(=O)(=O)c2ccc3c(c2)c(=O)sn3C)cc1", "note": "[N-(4,5-dichloro-2-{[(4-methoxyphenyl)sulfonyl]amino}phenyl)-1-methyl-3-oxo-1,3-dihydro-2,1-benzisothiazole-5-sulfonamide]", "CCR2 % ANTAG": 86, "IC50": 1.01}
{"compound": "Cn1sc(=O)c2cc(S(=O)(=O)Nc3ccccc3NS(=O)(=O)c3ccc(Cl)c(C(F)(F)F)c3)ccc21", "note": "[N-[2-({[4-chloro-3-(trifluoromethyl)phenyl]sulfonyl}amino)phenyl]-1-methyl-3-oxo-1,3-dihydro-2,1-benzisothiazole-5-sulfonamide]", "CCR2 % ANTAG": 100, "IC50": 0.412}
{"compound": "CSc1cccc(NS(=O)(=O)c2ccc3c(c2)c(=O)sn3C)c1", "note": "[1-methyl-N-[3-(methylthio)phenyl]-3-oxo-1,3-dihydro-2,1-benzisothiazole-5-sulfonamide]", "CCR2 % ANTAG": 86, "IC50": 1.19}
{"compound": "COc1cc(Cl)c(C)cc1NS(=O)(=O)c1ccc2c(c1)c(=O)sn2C", "note": "[N-(4-chloro-2-methoxy-5-methylphenyl)-1-methyl-3-oxo-1,3-dihydro-2,1-benzisothiazole-5-sulfonamide]", "CCR2 % ANTAG": 0, "IC50": "> 8.3"}
{"compound": "Cn1sc(=O)c2cc(S(=O)(=O)Nc3cccc(SC(F)(F)F)c3)ccc21", "note": "[1-methyl-3-oxo-N-{3-[(trifluoromethyl)thio]phenyl}-1,3-dihydro-2,1-benzisothiazole-5-sulfonamide]", "CCR2 % ANTAG": 85}
